From patent US20260053811A1, “METHODS OF TREATING HYPERTENSION IN OBESE SUBJECTS” (Mineralys Therapeutics, Inc., priority 2022, published 2026)
Marks after values point to notes of the source that are not given here.

System: hypertensive subjects
Experiment: Seated automated office blood pressure (AOBP) in randomized, placebo-controlled, dose-ranging study
Type: in vivo, human
Set-up: Difference from placebo in change in blood pressure: unit not given here
Method: A randomized, double-blinded, placebo-controlled, dose-ranging, multicenter study was conducted to evaluate the effect of orally administered Compound A HBr on blood pressure for the treatment of hypertension in male and female subjects ≥18 years of age.
The study consists of two parts. For enrollment into Part 1 of the study, a subject's value of plasma renin activity (PRA) must be ≤1 ng/mL/h based on morning measurement. If the value of PRA >1 ng/mL/h based on morning measurement, then subjects may be eligible to enter Part 2 of the study.
For Part 1, 163 enrolled subjects ≥18 years of age were randomized into 6 equal treatment groups (1:1:1:1:1:1) to 12.5 mg BID, 25 mg BID, 12.5 mg QD, 50 mg QD, 100 mg QD, or placebo. After a review of interim clinical data, the 2 lowest dose levels (12.5 mg QD and 12.5 mg BID) were stopped for future randomization due to a lack of consistent meaningful reduction of blood pressure, but the patients randomized to that point remained in the study through completion. Thus, after the review of interim clinical data, subjects were randomized into 4 equal treatment groups (1:1:1:1) to 25 mg BID, 50 mg QD, 100 mg QD, or placebo.
For Part 2, 36 enrolled subjects ≥18 years of age were randomized (5:1) to either 100 mg QD Compound A HBr or placebo such that the Compound A HBr treatment group consisted of approximately 30 subjects and the placebo treatment group will consist of approximately 6 subjects.
Subjects orally administered the assigned study drug (Compound A HBr or placebo) according to the assigned dosing regimen for 8 weeks beginning on Study Day 1. All subjects in Part 1 (regardless of dosing group) received BID dosing to preserve the integrity of the blind; active drug is administered as the morning dose for all QD dose groups. Subjects returned to the research facility or were seen by the clinical investigator or approved home health care professional at the end of Study Weeks 1, 2, 3, 4, 5, 6, 7, and 8 (±2 days) for protocol-defined efficacy and safety assessments and procedures, assessment of adverse events (AEs), and confirmation of compliance with study drug usage. Subjects also completed a telephone visit and blood pressure (BP) check at home approximately 3 days post last dose of study drug. Subjects attended up to 14 full clinic visits, including a pre-Screening visit, a Screening/start of Placebo Run-in visit, a second visit during Placebo Run-in, a clinic visit to initiate the ABPM procedure, a Randomization visit, 8 weekly visits during double-blind treatment, and an end-of-study visit scheduled 4 weeks after the last study treatment for final efficacy and safety assessments.
An automated oscillometric sphygmomanometer device was used to measure the subjects' systolic and diastolic blood pressure in office after approximately 5 minutes of rest in the seated position.
The primary endpoint is the change in office-measured (mean of last 2 of 5 unattended measurements using an automated oscillometric sphygmomanometer device after approximately 5 minutes of rest in the seated position) systolic blood pressure (SBP) from baseline to the end of Study Week 8.
Secondary endpoints of this study were: • (a) Change in 24-hour ambulatory blood pressure monitoring (ABPM) parameters (systolic and diastolic) from baseline to the end of Study Week 7. • (b) Change in office-measured SBP from baseline to the end of Study Weeks 1, 2, 3, 4, 5, 6, and 7. • (c) Change in office-measured diastolic blood pressure (DBP) from baseline to the end of Study Weeks 1, 2, 3, 4, 5, 6, 7, and 8. • (d) Proportion of subjects who achieve office-measured BP of ≤130/80 mm Hg by the end of Study Week 8.

SMILES: CC(=O)N[C@H]1CC[C@H](NC(=O)CN2CCN(c3nncc(-c4ccc(C)cc4)n3)CC2)CC1 [Compound A HBr]
- Difference from placebo in change in blood pressure (25 mg BID, Thiazide Yes): −8.3
- Seated AOBP DBP change from baseline (CFB), Mean (SD) (25 mg BID, Week 1, Part 1, FAS): −2.22 (5.68) mmHg
- Seated AOBP DBP, Mean (SD) (25 mg BID, Week 1, Part 1, FAS): 76.70 (9.28) mmHg
- Seated AOBP SBP change from baseline (CFB), Mean (SD) (25 mg BID, Week 1, Part 1, FAS): −6.57 (10.78) mmHg
- Seated AOBP SBP, Mean (SD) (25 mg BID, Week 1, Part 1, FAS): 134.37 (14.17) mmHg
- Seated AOBP DBP change from baseline (CFB), Mean (SD) (25 mg BID, Week 2, Part 1, FAS): −2.42 (8.03) mmHg
- Seated AOBP DBP, Mean (SD) (25 mg BID, Week 2, Part 1, FAS): 76.50 (10.74) mmHg
- Seated AOBP SBP change from baseline (CFB), Mean (SD) (25 mg BID, Week 2, Part 1, FAS): −6.37 (13.43) mmHg
- Seated AOBP SBP, Mean (SD) (25 mg BID, Week 2, Part 1, FAS): 134.57 (17.75) mmHg
- Seated AOBP DBP change from baseline (CFB), Mean (SD) (25 mg BID, Week 3, Part 1, FAS): −0.55 (14.99) mmHg
- Seated AOBP DBP, Mean (SD) (25 mg BID, Week 3, Part 1, FAS): 78.72 (15.35) mmHg
- Seated AOBP SBP change from baseline (CFB), Mean (SD) (25 mg BID, Week 3, Part 1, FAS): −5.34 (18.35) mmHg
- Seated AOBP SBP, Mean (SD) (25 mg BID, Week 3, Part 1, FAS): 136.34 (19.78) mmHg
- LSM Δ with Placebo, seated AOBP DBP (MMRM) (25 mg BID, Week 4, Part 1, FAS): −5.94 mmHg
- Modelled (MMRM) LSM (SEM) change from baseline, seated AOBP DBP (25 mg BID, Week 4, Part 1, FAS): −6.47 (1.41) mmHg
- Seated AOBP DBP change from baseline (CFB), Mean (SD) (25 mg BID, Week 4, Part 1, FAS): −5.80 (7.01) mmHg
- Seated AOBP DBP, Mean (SD) (25 mg BID, Week 4, Part 1, FAS): 73.26 (7.79) mmHg
- Seated AOBP SBP change from baseline (CFB), Mean (SD) (25 mg BID, Week 4, Part 1, FAS): −9.63 (12.34) mmHg
- Seated AOBP SBP, Mean (SD) (25 mg BID, Week 4, Part 1, FAS): 131.85 (13.59) mmHg
- Seated AOBP DBP change from baseline (CFB), Mean (SD) (25 mg BID, Week 5, Part 1, FAS): −2.82 (8.82) mmHg
- Seated AOBP DBP, Mean (SD) (25 mg BID, Week 5, Part 1, FAS): 76.29 (9.91) mmHg
- Seated AOBP SBP change from baseline (CFB), Mean (SD) (25 mg BID, Week 5, Part 1, FAS): −9.16 (15.72) mmHg
- Seated AOBP SBP, Mean (SD) (25 mg BID, Week 5, Part 1, FAS): 132.25 (16.30) mmHg
- Seated AOBP DBP change from baseline (CFB), Mean (SD) (25 mg BID, Week 6, Part 1, FAS): −3.07 (8.82) mmHg
- Seated AOBP DBP, Mean (SD) (25 mg BID, Week 6, Part 1, FAS): 76.04 (10.57) mmHg
- Seated AOBP SBP change from baseline (CFB), Mean (SD) (25 mg BID, Week 6, Part 1, FAS): −7.09 (11.66) mmHg
- Seated AOBP SBP, Mean (SD) (25 mg BID, Week 6, Part 1, FAS): 134.32 (13.96) mmHg
- Seated AOBP DBP change from baseline (CFB), Mean (SD) (25 mg BID, Week 7, Part 1, FAS): −4.87 (8.84) mmHg
- Seated AOBP DBP, Mean (SD) (25 mg BID, Week 7, Part 1, FAS): 73.89 (10.76) mmHg
- Seated AOBP SBP change from baseline (CFB), Mean (SD) (25 mg BID, Week 7, Part 1, FAS): −11.00 (13.60) mmHg
- Seated AOBP SBP, Mean (SD) (25 mg BID, Week 7, Part 1, FAS): 130.74 (15.42) mmHg
- LSM Δ from Placebo, change from baseline in seated AOBP SBP (MMRM) (25 mg BID, Week 8, Part 1, FAS): −6.97 mmHg
- LSM Δ with Placebo, seated AOBP DBP (MMRM) (25 mg BID, Week 8, Part 1, FAS): −2.49 mmHg
- Modelled (MMRM) LSM (SEM) change from baseline, seated AOBP DBP (25 mg BID, Week 8, Part 1, FAS): −4.12 (1.68) mmHg
- Modelled (MMRM) LSM (SEM) change from baseline, seated AOBP SBP (25 mg BID, Week 8, Part 1, FAS): −11.07 (2.65) mmHg
- Seated AOBP DBP change from baseline (CFB), Mean (SD) (25 mg BID, Week 8, Part 1, FAS): −3.68 (11.71) mmHg
- Seated AOBP DBP, Mean (SD) (25 mg BID, Week 8, Part 1, FAS): 75.43 (13.06) mmHg
- Seated AOBP SBP change from baseline (CFB), Mean (SD) (25 mg BID, Week 8, Part 1, FAS): −10.13 (14.02) mmHg
- Seated AOBP SBP, Mean (SD) (25 mg BID, Week 8, Part 1, FAS): 131.29 (16.59) mmHg
- Subjects with seated AOBP SBP/DBP ≤130/80 mmHg: No (25 mg BID, Week 8, Part 1, FAS): 17 (56.7) n (%)
- Subjects with seated AOBP SBP/DBP ≤130/80 mmHg: Yes (25 mg BID, Week 8, Part 1, FAS): 13 (43.3) n (%)
- Difference from placebo in change in blood pressure (50 mg QD, BMI 25-30): 2.0
- Difference from placebo in change in blood pressure (50 mg QD, BMI >30): −16.6*
- Mean placebo-adjusted reduction in AOBP SBP (50 mg QD, Part 1, Week 8): 9.58 mmHg
- Placebo-adjusted reduction in AOBP DBP, thiazide diuretic use at baseline (50 mg QD, Part 1, Week 8): −7.7 mmHg
- Placebo-adjusted reduction in AOBP SBP from baseline, by baseline AOBP SBP tertile (50 mg QD, Part 1, Week 8): −19.9 mmHg
